From ChEMBL document CHEMBL5723379, “Affinity On-target Cellular Literature for EUbOPEN Chemogenomic Library” (2024)
Values belong to the molecule of their own block, whether it stands above or below them.

Key:
[1] = molecular target: T1, Peroxisome proliferator-activated receptor gamma (Homo sapiens, UniProt P37231); experiment: Affinity On-target Cellular interaction: (Reporter gene assay (HEK293T cells)) EUB0001147a PPARG; format: functional, cell-based, HEK-293T; parameters: mode of action Agonist, recommended concentration 1 uM
T1 sequence (P37231 whole entry): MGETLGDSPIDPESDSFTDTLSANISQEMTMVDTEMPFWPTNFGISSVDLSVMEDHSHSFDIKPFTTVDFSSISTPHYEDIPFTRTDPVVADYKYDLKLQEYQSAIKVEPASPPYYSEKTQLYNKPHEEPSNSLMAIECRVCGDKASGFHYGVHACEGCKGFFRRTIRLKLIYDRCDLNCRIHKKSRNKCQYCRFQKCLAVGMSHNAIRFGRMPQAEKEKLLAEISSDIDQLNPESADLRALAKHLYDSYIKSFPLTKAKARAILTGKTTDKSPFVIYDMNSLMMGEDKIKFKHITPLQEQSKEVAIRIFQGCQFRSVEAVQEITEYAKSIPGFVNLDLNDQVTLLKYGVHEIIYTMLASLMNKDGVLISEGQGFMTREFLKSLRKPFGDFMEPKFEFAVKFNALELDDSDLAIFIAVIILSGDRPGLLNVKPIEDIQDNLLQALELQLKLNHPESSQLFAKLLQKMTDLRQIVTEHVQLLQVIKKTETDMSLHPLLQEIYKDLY

[2] = molecular target: T2, Peroxisome proliferator-activated receptor alpha (Homo sapiens, UniProt Q07869); experiment: Affinity On-target Cellular interaction: (Reporter gene assay (HEK293T cells)) EUB0001147a PPARA; format: functional, cell-based, HEK-293T; parameters: mode of action Agonist, recommended concentration 1 uM
T2 sequence (Q07869 whole entry): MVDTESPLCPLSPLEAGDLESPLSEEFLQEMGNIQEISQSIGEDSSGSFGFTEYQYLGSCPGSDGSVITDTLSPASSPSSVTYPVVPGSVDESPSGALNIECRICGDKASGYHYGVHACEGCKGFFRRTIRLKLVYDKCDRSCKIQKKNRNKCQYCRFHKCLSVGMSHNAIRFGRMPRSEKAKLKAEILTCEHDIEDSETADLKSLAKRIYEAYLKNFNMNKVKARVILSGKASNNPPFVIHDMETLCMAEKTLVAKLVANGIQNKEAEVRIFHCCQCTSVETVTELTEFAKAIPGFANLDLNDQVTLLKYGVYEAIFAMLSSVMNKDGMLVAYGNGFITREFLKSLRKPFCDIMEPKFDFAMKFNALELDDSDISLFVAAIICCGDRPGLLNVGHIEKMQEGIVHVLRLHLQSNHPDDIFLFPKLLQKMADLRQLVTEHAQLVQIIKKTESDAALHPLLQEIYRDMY

[3] = molecular target: T3, Oxysterols receptor LXR-alpha (Homo sapiens, UniProt Q13133); experiment: Affinity On-target Cellular interaction: (Reporter gene assay (HEK293T cells)) EUB0000082b NR1H3; format: functional, cell-based, HEK-293T; parameters: mode of action Agonist, recommended concentration 3 uM
T3 sequence (Q13133 whole entry): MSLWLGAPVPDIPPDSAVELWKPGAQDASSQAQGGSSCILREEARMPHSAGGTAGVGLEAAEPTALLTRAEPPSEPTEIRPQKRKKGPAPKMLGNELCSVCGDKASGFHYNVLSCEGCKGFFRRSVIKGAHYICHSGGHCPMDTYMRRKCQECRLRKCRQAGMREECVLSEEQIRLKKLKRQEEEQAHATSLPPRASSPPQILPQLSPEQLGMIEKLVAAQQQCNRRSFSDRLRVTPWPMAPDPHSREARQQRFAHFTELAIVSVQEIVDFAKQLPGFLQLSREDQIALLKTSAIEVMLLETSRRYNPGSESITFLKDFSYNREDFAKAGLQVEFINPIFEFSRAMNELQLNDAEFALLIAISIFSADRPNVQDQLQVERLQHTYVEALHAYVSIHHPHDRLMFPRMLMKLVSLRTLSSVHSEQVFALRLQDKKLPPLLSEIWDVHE

[4] = molecular target: T4, Oxysterols receptor LXR-beta (Homo sapiens, UniProt P55055)
T4 sequence (P55055 whole entry): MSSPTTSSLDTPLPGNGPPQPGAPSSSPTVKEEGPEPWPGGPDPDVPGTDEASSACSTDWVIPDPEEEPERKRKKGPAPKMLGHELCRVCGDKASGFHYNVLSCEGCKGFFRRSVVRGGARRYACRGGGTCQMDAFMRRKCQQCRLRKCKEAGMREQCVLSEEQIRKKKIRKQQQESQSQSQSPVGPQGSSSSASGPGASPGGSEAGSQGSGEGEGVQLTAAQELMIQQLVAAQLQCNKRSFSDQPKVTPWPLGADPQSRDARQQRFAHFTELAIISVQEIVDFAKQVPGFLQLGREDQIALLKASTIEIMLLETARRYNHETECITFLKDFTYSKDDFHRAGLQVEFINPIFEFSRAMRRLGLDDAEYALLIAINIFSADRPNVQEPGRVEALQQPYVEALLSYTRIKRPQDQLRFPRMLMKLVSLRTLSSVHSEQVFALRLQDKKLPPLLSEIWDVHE

[5] = molecular target: T1, Peroxisome proliferator-activated receptor gamma; experiment: Affinity On-target Cellular interaction: (Reporter gene assay (HEK293T cells)) EUB0001144a PPARG; format: functional, cell-based, HEK-293T; parameters: mode of action Agonist, recommended concentration 1 uM
[6] = molecular target: T2, Peroxisome proliferator-activated receptor alpha; experiment: Affinity On-target Cellular interaction: (Reporter gene assay (HEK293T cells)) EUB0001144a PPARA; format: functional, cell-based, HEK-293T; parameters: mode of action Agonist, recommended concentration 1 uM
[7] = molecular target: Nucleotide triphosphate diphosphatase NUDT15 (Homo sapiens) (UniProt Q9NV35); experiment: Affinity On-target Cellular interaction: (Cellular thermal shift assay, HL-60 cells) EUB0002330a NUDT15; format: functional, cell-based; parameters: recommended concentration 1 uM; conditions: Affinity On-target Cellular Source Knowledge https://www.nature.com/articles/s41589-020-0592-z
[8] = molecular target: Retinoic acid receptor beta (Homo sapiens, UniProt P10826); experiment: Affinity On-target Cellular interaction: (Reporter gene assay (HEK293T cells)) EUB0000835a RARB; format: functional, cell-based, HEK-293T; parameters: mode of action Agonist, recommended concentration 1 uM
[9] = molecular target: T5, Retinoic acid receptor alpha (Homo sapiens, UniProt P10276); experiment: Affinity On-target Cellular interaction: (Reporter gene assay (HEK293T cells)) EUB0000835a RARA; format: functional, cell-based, HEK-293T; parameters: mode of action Agonist, recommended concentration 1 uM
[10] = molecular target: Retinoic acid receptor gamma (Homo sapiens, UniProt P13631); experiment: Affinity On-target Cellular interaction: (Reporter gene assay (HEK293T cells)) EUB0000835a RARG; format: functional, cell-based, HEK-293T; parameters: mode of action Agonist, recommended concentration 1 uM
[11] = molecular target: Lysine-specific demethylase 4A (Homo sapiens) (UniProt O75164); experiment: Affinity On-target Cellular interaction: (Cellular thermal shift assay (CETSA), U2OS cells) EUB0002543a KDM4A; format: functional, cell-based; parameters: recommended concentration 1 uM; conditions: Affinity On-target Cellular Source Knowledge https://www.nature.com/articles/ncomms14773#Tab1
[12] = molecular target: T1, Peroxisome proliferator-activated receptor gamma; experiment: Affinity On-target Cellular interaction: (Reporter gene assay (HEK293T cells)) EUB0001143a PPARG; format: functional, cell-based, HEK-293T; parameters: mode of action Agonist, recommended concentration 1 uM
[13] = molecular target: T3, Oxysterols receptor LXR-alpha; experiment: Affinity On-target Cellular interaction: (Reporter gene assay (HEK293T cells)) EUB0000183b NR1H3; format: functional, cell-based, HEK-293T; parameters: mode of action Antagonist, recommended concentration 3 uM
[14] = molecular target: T4, Oxysterols receptor LXR-beta; experiment: Affinity On-target Cellular interaction: (Reporter gene assay (HEK293T cells)) EUB0000183b NR1H2; format: functional, cell-based, HEK-293T; parameters: mode of action Antagonist, recommended concentration 3 uM
[15] = molecular target: T5, Retinoic acid receptor alpha; experiment: Affinity On-target Cellular interaction: (Reporter gene assay (HEK293T cells)) EUB0000565a RARA; format: functional, cell-based, HEK-293T; parameters: mode of action Agonist, recommended concentration 1 uM
[16] = molecular target: T2, Peroxisome proliferator-activated receptor alpha; experiment: Affinity On-target Cellular interaction: (Reporter gene assay (HEK293T cells)) EUB0000188b PPARA; format: functional, cell-based, HEK-293T; parameters: mode of action Agonist, recommended concentration 1 uM
[17] = molecular target: T6, Peroxisome proliferator-activated receptor delta (Homo sapiens, UniProt Q03181); experiment: Affinity On-target Cellular interaction: (Reporter gene assay (HEK293T cells)) EUB0000188b PPARD; format: functional, cell-based, HEK-293T; parameters: mode of action Agonist, recommended concentration 1 uM
T6 sequence (Q03181 whole entry): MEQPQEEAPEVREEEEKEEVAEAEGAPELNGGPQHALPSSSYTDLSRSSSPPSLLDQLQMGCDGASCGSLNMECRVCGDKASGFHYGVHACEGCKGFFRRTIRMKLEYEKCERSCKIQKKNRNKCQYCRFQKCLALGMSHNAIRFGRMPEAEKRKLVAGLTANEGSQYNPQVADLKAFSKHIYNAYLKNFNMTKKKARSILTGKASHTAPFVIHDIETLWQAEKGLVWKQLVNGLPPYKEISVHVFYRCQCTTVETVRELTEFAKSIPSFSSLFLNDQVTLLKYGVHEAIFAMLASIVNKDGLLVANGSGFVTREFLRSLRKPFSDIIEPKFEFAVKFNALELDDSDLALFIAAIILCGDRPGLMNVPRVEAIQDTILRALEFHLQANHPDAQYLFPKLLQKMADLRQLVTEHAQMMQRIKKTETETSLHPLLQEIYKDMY

[18] = molecular target: T1, Peroxisome proliferator-activated receptor gamma; experiment: Affinity On-target Cellular interaction: (Reporter gene assay (HEK293T cells)) EUB0000188b PPARG; format: functional, cell-based, HEK-293T; parameters: mode of action Agonist, recommended concentration 1 uM
[19] = molecular target: T2, Peroxisome proliferator-activated receptor alpha; experiment: Affinity On-target Cellular interaction: (Reporter gene assay (HEK293T cells)) EUB0000581a PPARA; format: functional, cell-based, HEK-293T; parameters: mode of action Agonist, recommended concentration 1 uM

T5 sequence (P10276 whole entry): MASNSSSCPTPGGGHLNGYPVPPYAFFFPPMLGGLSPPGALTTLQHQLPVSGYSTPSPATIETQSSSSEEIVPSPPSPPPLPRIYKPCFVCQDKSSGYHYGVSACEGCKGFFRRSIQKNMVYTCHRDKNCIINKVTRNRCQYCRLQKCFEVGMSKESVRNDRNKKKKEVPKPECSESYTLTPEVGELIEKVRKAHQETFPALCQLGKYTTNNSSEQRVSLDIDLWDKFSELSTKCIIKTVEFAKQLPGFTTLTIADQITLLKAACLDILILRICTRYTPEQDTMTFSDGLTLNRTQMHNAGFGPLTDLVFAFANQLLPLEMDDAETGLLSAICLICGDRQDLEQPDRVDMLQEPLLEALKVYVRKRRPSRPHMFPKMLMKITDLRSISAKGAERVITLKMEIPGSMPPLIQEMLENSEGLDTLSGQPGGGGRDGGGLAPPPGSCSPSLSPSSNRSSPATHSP
Retinoic acid receptor beta, sequence (P10826 whole entry): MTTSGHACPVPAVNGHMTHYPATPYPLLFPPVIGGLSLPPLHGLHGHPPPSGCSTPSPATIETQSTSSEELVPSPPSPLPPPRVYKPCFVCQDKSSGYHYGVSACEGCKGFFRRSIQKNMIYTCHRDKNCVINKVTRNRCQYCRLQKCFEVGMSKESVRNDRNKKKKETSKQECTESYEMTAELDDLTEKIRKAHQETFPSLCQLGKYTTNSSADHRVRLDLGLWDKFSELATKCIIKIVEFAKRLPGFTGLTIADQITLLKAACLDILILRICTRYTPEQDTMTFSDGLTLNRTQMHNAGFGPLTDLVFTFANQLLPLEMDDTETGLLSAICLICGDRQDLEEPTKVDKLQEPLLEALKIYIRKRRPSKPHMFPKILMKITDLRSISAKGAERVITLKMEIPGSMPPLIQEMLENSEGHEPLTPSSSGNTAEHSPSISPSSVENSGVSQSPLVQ
Lysine-specific demethylase 4A (Homo sapiens), sequence (O75164 whole entry): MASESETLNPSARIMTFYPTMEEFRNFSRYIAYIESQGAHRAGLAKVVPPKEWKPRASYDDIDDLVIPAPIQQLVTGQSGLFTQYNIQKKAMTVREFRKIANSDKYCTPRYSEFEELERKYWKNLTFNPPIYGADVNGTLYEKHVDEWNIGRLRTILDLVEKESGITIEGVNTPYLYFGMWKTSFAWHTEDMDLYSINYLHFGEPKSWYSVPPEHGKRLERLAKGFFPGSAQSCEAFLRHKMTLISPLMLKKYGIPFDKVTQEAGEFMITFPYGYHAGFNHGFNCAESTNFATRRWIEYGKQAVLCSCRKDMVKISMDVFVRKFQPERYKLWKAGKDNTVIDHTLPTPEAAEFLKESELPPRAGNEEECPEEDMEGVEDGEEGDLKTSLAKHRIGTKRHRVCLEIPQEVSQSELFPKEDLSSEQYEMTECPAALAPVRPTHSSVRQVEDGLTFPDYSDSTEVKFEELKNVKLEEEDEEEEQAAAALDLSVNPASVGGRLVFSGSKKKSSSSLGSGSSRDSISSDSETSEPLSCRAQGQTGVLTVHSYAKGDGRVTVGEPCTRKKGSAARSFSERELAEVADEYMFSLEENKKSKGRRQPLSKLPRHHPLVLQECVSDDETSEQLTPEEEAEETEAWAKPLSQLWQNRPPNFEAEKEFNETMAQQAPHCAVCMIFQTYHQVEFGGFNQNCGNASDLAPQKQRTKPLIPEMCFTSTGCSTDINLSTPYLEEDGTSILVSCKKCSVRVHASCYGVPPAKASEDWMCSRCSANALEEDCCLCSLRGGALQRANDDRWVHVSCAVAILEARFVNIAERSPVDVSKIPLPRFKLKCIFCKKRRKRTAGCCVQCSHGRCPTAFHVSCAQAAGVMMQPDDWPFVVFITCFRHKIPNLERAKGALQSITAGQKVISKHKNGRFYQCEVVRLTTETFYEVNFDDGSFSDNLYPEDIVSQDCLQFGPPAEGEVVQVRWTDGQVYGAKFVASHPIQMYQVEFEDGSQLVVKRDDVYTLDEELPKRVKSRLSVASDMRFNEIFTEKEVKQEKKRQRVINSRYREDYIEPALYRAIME
Nucleotide triphosphate diphosphatase NUDT15 (Homo sapiens), sequence (Q9NV35 whole entry): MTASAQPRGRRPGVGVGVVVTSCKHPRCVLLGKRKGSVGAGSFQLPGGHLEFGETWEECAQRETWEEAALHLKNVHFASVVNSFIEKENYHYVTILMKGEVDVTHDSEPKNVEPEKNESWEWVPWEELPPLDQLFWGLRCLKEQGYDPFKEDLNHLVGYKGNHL
Retinoic acid receptor gamma, sequence (P13631 whole entry): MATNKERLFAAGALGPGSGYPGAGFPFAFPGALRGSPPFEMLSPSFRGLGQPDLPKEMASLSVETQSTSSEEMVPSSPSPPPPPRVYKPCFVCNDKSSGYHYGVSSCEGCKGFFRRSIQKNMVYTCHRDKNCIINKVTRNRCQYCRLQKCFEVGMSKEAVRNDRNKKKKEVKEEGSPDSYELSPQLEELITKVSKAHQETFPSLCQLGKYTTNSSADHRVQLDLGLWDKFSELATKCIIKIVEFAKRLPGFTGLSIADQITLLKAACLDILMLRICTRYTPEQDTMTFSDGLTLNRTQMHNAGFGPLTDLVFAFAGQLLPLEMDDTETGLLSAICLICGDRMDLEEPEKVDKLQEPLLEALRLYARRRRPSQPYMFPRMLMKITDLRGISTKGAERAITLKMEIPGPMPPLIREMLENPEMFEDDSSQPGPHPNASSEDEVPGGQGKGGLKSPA

SMILES: CSc1ccc(C(=O)/C=C/c2cc(C)c(OC(C)(C)C(=O)O)c(C)c2)cc1 [ELAFIBRANOR]
EC50 [1]: 410 nM
EC50 [2]: 130 nM

SMILES: Fc1ccc(-c2c3cccc(C(F)(F)F)c3nn2Cc2ccc(F)cc2Cl)cc1 [LXR-623]
EC50 [3]: 7000 nM
EC50 [4]: 4000 nM

SMILES: C[C@H]1[C@H]2CC[C@H]3[C@@H]4CC=C5C[C@@H](N(C)C)CC[C@]5(C)[C@H]4CC[C@]23CN1C [CONESSINE]
EC50 [8]: 10 nM
EC50 [9]: 630 nM
EC50 [10]: 501 nM

SMILES: Cc1cc(C)c(S(=O)(=O)N(Cc2ccc(-c3cccc(S(C)(=O)=O)c3)cc2)Cc2ccc(C(F)(F)F)o2)c(C)c1
IC50 [13]: 100 nM
IC50 [14]: 40 nM

SMILES: CCCc1c(OCCCOc2ccc(OCC(=O)O)cc2)ccc(C(C)=O)c1O
EC50 [16]: 1000 nM
EC50 [17]: 15 nM
EC50 [18]: 980 nM

Now from value to molecule:

EC50 [5]: 130 nM
EC50 [6]: 290 nM
SMILES: CCO[C@@H](Cc1ccc(OCCc2ccc(OS(C)(=O)=O)cc2)cc1)C(=O)O [TESAGLITAZAR]

K [7]: 280 nM
SMILES: O=C(c1ccc2[nH]ccc2c1)N1CCN(S(=O)(=O)c2ccc3[nH]c(=O)oc3c2)CC1

K [11]: 285 nM
SMILES: CC(C)[C@@H]1NC(=O)[C@H](Cc2ccc(O)cc2)NC(=O)[C@@H](CC(=O)O)NC(=O)S[C@@H](C(=O)O)NC(=O)[C@H]([C@H](C)O)NC(=O)[C@H](Cc2ccc(O)cc2)NC(=O)[C@H](Cc2c[nH]c3ccccc23)NC(=O)[C@H](CCCNC(=N)N)NC(=O)[C@H](Cc2c[nH]c3ccccc23)NC(=O)[C@H](C)NC(=O)[C@H](CO)NC(=O)[C@H](CCCNC(=N)N)NC(=O)[C@H]([C@H](C)O)NC(=O)[C@H](CC(N)=O)NC(=O)[C@H](Cc2ccc(O)cc2)NC1=O

EC50 [12]: 730 nM
SMILES: COc1cc2c(cc1CC=C(C)C)C(=O)C[C@@H](c1ccc(O)cc1)O2 [BAVACHININ A]

EC50 [15]: 110 nM
SMILES: CC1(C)C(=O)C(C)(C)c2cc(C(=O)Nc3ccc(C(=O)O)cc3)ccc21

EC50 [19]: 50 nM
SMILES: CC(C)c1ccc(CC(=O)N2CCC[C@@H](c3cccc(OC(C)(C)C(=O)O)c3)C2)cc1
